Legend:
[1] = Pharmacokinetics following intravenous dosing; settings: in vivo
Experimental: Noncompartmental pharmacokinetic parameters were analyzed using Watson Bioanalytical LIMS (Version 7.4; Thermo Fisher Scientific) from either the blood or plasma samples. The following parameters were estimated following intravenous (IV) dosing; terminal elimination half-life (T1/2=ln(2)/λz, where λz is the first order rate constant associated with the terminal (log-linear) portion of the curve.
The area under the curve (AUClast=area under the curve from the time of dosing to the last measurable concentration). The area under the curve extrapolated to infinity (AUC0-∞=AUClast+Clast/λz). The clearance (Cl; Cl=DoseIV/AUC0-∞). The area under the first moment curve (AUMClast=area under the concentration times time versus time curve from the time of dosing to the last measurable concentration). The area under the first moment curve extrapolated to infinity (AUMC0-∞=AUMClast+Clast×t/λz+Clast/λz^2). The mean residence time (MRT=AUMC0-∞/AUC0-∞) and the steady state volume of distribution (Vdss=MRT×Cl) (see Table 2 below for data).
Clearance and volume of distribution can also be obtained using methods known to one of skill in the art (see e.g., Handbook of Essential Pharmacokinetics, Pharmacodynamics and Drug Metabolism for Industrial Scientists, Younggil Kwon, pp 18-28 (Non-compartmental Approach)).

[2] = tested on: HCT116 colorectal cancer cells; experiment: Single Agent HCT116 Activity, 96 h cell viability (MTS) assay; format: cell-based; settings: Homo sapiens, HCT-116, read-out: Single agent HT116 IC50
Experimental: Compounds can be screened for single agent activity against HCT116 colorectal cancer cells using a 96 h cell viability (MTS) assay. HCT116 are plated at 470 cells per well in 96-well polystyrene plates (Costar 3596) in 150 μl of McCoy's 5A media (Sigma M8403) supplemented with 10% foetal bovine serum (JRH Biosciences 12003), Penicillin/Streptomycin solution diluted 1:100 (Sigma P7539), and 2 mM L-glumtamine (Sigma G7513), and allowed to adhere overnight at 37° C. in 5% CO2. Compounds are then added to the cell media in 2-fold serial dilutions from a top final concentration of 10 μM as a full matrix of concentrations in a final cell volume of 200 μl, and the cells are then incubated at 37° C. in 5% CO2. After 96 h, 40 μl of MTS reagent (Promega G358a) is added to each well and the cells are incubated for 1 h at 37° C. in 5% CO2. Finally, absorbance is measured at 490 nm using a SpectraMax Plus 384 reader (Molecular Devices) and IC50 values can be calculated (see Table 2 below for data).

[3] = biological target: T1, full-length ATR (Homo sapiens, UniProt Q13535); experiment: ATR Inhibition Assay (radioactive-phosphate incorporation); format: biochemical; settings: Ki(app); 10 μM ATP, 5 nM full-length ATR, 25° C.
T1 construct: Assays were carried out at 25° C. in the presence of 5 nM full-length ATR
Experimental: Compounds were screened for their ability to inhibit ATR kinase using a radioactive-phosphate incorporation assay. Assays were carried out in a mixture of 50 mM Tris/HCl (pH 7.5), 10 mM MgCl2 and 1 mM DTT. Final substrate concentrations were 10 μM [γ-33P]ATP (3 mCi 33P ATP/mmol ATP, Perkin Elmer) and 800 μM target peptide (ASELPASQPQPFSAKKK (SEQ ID NO: 1)).
Assays were carried out at 25° C. in the presence of 5 nM full-length ATR. An assay stock buffer solution was prepared containing all of the reagents listed above, with the exception of ATP and the test compound of interest. 13.5 μL of the stock solution was placed in a 96 well plate followed by addition of 2 μL of DMSO stock containing serial dilutions of the test compound (typically starting from a final concentration of 15 μM with 3-fold serial dilutions) in duplicate (final DMSO concentration 7%). The plate was pre-incubated for 10 minutes at 25° C. and the reaction initiated by addition of 15 μL [γ-33P]ATP (final concentration 10 μM).
The reaction was stopped after […] by the addition of 30 μL 0.1M phosphoric acid containing 2 mM ATP. […]
After removing mean background values for all of the data points, Ki(app) data were calculated from non-linear regression analysis of the initial rate data using the Prism software package (GraphPad Prism version 3.0cx for Macintosh, GraphPad Software, San Diego Calif., USA). […]

[4] = biological target: T2, intracellular ATR (Homo sapiens, UniProt Q13535); experiment: Cellular ATR Inhibition Assay (phosphorylated H2AX immunofluorescence in hydroxyurea treated HT29 cells); format: cell-based; settings: 2 mM hydroxyurea, phosphorylated H2AX Ser139
T2 construct: endogenous in cells; host or cells: HT29
Experimental: Compounds can be screened for their ability to inhibit intracellular ATR using an immunofluorescence microscopy assay to detect phosphorylation of the ATR substrate histone H2AX in hydroxyurea treated cells. HT29 cells are plated at 14,000 cells per well in 96-well black imaging plates (BD 353219) in McCoy's 5A media (Sigma M8403) supplemented with 10% foetal bovine serum (JRH Biosciences 12003), Penicillin/Streptomycin solution diluted 1:100 (Sigma P7539), and 2 mM L-glumtamine (Sigma G7513), and allowed to adhere overnight at 37° C. in 5% CO2. Compounds are then added to the cell media from a final concentration of 25 μM in 3-fold serial dilutions and the cells are incubated at 37° C. in 5% CO2. […]
Cells are imaged for Alexa Fluor 488 and Hoechst intensity using the BD Pathway 855 Bioimager and Attovision software (BD Biosciences, Version 1.6/855) to quantify phosphorylated H2AX Ser139 and DNA staining, respectively. The percentage of phosphorylated H2AX-positive nuclei in a montage of 9 images at 20× magnification is then calculated for each well using BD Image Data Explorer software (BD Biosciences Version 2.2.15). […] The percentage of H2AX positive nuclei is finally plotted against concentration for each compound and IC50s for intracellular ATR inhibition are determined using Prism software (GraphPad Prism version 3.0cx for Macintosh, GraphPad Software, San Diego Calif., USA).

[5] = tested on: HCT116 colorectal cancer cells; experiment: Cisplatin Sensitization Assay, 96 h cell viability (MTS); format: cell-based; settings: concentration of compound required to reduce the IC50 of Cisplatin alone by at least 3-fold; HCT116, 96 h
Experimental: Compounds can be screened for their ability to sensitize HCT116 colorectal cancer cells to Cisplatin using a 96 h cell viability (MTS) assay. […] Compounds and Cisplatin are then both added simultaneously to the cell media in 2-fold serial dilutions from a top final concentration of 10 μM as a full matrix of concentrations in a final cell volume of 200 μl, and the cells are then incubated at 37° C. in 5% CO2. After 96 h, 40 μl of MTS reagent (Promega G358a) is added to each well and the cells are incubated for 1 h at 37° C. in 5% CO2. Finally, absorbance is measured at 490 nm using a SpectraMax Plus 384 reader (Molecular Devices) and the concentration of compound required to reduce the IC50 of Cisplatin alone by at least 3-fold (to 1 decimal place) can be reported.

T1 sequence (Q13535 whole entry): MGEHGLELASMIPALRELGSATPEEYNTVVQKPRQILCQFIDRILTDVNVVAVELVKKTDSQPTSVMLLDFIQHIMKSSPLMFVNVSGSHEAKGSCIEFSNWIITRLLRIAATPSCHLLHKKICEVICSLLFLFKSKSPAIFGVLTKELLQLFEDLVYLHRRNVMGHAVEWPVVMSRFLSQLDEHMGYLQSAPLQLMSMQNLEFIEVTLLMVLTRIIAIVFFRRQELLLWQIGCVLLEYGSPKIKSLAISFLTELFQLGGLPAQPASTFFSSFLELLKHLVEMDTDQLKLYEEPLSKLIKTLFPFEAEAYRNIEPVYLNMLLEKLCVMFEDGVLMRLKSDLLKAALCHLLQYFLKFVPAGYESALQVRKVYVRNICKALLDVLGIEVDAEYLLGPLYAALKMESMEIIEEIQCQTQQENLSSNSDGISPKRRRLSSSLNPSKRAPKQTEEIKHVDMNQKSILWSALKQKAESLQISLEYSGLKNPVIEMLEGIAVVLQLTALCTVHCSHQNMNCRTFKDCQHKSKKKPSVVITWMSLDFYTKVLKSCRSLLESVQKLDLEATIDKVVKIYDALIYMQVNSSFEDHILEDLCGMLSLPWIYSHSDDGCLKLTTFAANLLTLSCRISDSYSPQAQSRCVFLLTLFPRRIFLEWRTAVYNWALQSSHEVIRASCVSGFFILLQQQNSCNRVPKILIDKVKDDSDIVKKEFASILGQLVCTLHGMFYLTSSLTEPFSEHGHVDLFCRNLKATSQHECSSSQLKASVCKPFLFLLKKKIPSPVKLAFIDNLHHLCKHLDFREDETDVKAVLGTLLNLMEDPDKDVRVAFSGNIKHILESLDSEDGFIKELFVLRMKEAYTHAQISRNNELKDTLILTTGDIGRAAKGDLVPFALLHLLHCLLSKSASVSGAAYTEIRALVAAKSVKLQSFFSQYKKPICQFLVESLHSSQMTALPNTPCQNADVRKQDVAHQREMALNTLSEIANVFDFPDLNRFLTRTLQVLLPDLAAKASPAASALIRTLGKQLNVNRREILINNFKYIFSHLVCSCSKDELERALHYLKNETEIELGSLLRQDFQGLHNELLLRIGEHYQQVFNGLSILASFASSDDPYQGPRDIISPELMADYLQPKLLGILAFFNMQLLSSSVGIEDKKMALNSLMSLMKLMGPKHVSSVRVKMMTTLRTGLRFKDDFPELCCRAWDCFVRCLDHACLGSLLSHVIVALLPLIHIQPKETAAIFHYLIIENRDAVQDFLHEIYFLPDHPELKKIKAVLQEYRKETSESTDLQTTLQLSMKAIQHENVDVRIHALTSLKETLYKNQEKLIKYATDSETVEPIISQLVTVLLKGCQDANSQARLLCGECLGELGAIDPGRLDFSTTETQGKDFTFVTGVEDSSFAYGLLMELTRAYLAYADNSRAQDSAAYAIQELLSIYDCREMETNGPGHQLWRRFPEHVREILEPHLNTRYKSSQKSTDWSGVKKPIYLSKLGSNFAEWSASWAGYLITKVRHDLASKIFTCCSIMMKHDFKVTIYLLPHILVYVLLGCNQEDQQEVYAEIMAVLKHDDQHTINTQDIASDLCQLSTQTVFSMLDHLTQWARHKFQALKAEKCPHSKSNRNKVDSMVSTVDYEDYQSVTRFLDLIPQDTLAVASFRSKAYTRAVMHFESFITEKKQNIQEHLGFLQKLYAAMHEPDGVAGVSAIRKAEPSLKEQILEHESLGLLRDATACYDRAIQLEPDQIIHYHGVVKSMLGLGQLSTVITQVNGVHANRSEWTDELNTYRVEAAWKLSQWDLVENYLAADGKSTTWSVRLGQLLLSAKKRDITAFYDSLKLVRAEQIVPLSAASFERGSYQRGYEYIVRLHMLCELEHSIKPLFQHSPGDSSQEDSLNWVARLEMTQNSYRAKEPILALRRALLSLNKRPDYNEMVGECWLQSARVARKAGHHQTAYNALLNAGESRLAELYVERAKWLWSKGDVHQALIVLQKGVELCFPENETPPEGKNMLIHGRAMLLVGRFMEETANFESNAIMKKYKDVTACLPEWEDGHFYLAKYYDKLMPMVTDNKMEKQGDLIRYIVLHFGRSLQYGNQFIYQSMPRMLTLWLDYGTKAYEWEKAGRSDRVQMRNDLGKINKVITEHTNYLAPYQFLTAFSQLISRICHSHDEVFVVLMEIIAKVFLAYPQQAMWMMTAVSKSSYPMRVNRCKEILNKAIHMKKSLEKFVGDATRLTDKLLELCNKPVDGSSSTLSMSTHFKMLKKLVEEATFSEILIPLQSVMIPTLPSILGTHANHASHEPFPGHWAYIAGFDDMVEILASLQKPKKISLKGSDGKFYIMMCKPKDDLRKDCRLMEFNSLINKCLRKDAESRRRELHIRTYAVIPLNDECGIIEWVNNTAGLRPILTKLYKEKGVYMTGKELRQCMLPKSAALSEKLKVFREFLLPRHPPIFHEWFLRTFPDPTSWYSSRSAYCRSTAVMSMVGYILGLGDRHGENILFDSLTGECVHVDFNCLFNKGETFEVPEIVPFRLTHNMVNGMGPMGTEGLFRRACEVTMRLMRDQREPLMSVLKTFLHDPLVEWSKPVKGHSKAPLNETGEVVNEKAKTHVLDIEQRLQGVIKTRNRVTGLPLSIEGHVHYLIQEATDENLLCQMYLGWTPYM
T2 sequence (Q13535 whole entry): as above
T2 sequence (Q8WXE1 whole entry partner): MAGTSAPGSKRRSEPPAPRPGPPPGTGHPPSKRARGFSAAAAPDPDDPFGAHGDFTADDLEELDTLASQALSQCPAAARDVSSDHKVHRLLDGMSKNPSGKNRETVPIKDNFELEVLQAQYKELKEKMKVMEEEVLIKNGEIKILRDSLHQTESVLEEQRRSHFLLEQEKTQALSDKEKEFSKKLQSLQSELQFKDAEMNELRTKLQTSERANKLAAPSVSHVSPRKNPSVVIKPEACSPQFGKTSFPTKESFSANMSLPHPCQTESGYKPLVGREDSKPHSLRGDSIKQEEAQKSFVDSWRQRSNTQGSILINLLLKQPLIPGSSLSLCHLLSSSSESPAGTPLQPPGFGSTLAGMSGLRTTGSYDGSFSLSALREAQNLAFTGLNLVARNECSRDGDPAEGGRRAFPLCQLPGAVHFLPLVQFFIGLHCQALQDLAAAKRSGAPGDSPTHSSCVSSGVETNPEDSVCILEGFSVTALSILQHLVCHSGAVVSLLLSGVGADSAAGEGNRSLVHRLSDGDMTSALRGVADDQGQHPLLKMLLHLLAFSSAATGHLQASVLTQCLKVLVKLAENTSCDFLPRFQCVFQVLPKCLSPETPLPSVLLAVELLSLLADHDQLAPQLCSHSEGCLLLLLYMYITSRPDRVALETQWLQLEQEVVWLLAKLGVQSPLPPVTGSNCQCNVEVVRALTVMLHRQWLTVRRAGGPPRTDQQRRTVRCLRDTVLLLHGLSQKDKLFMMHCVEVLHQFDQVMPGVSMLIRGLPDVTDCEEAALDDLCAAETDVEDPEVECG

clearance ([1]; blood or plasma samples): 6 mL/min/kg
Vd ([1]; steady state volume of distribution, read-out: Vss): 0.9 L/kg
IC50 [2]: 62 nM
Ki [3]: 0.21 nM
IC50 [4]: 16 nM
SMILES: CC(C)S(=O)(=O)c1ccc(-c2cnc(N)c(-c3cc(-c4ccc(CNCC5COC5)cc4)no3)n2)cc1 [I, 5-(4-(isopropylsulfonyl)phenyl)-3-(3-(4-((oxetan-3-ylmethylamino)methyl)phenyl)isoxazol-5-yl)pyrazin-2-amine]
Cisplatin sensitization [5]: 39 nM

Source: patent US8853217B2, “Compounds useful as inhibitors of ATR kinase” (Vertex Pharmaceuticals Incorporated, priority 2011, dated 2014)
